According to patent US10202361B2, “Pyridazinones as herbicides” (E I DU PONT DE NEMOURS AND COMPANY, priority 2014, dated 2019):

Assays:
Format in all cases: in vivo
[1] = test system: crabgrass, Large (large crabgrass, Digitaria sanguinalis); test: Test A pre-/postemergence greenhouse herbicide test; conditions: 0 to 100 scale (0 no effect, 100 complete control), approx. 10 d
Source text: (§1) Seeds of plant species selected from barnyardgrass (Echinochloa crus-galli), crabgrass, Large (large crabgrass, Digitaria sanguinalis), foxtail, giant (giant foxtail, Setaria faberii), morningglory (Ipomoea spp.), pigweed (Amaranthus retroflexus), velvetleaf (Abutilon theophrasti), wheat (Triticum aestivum), and corn (Zea mays) were planted into a blend of loam soil and sand and treated preemergence with a directed soil spray using test chemicals formulated in a non-phytotoxic solvent mixture which included a surfactant. At the same time these species were also treated with postemergence applications of test chemicals formulated in the same manner.
(§2) Plants ranged in height from 2 to 10 cm and were in the one- to two-leaf stage for the postemergence treatment. Treated plants and untreated controls were maintained in a greenhouse for approximately 10 d, after which time all treated plants were compared to untreated controls and visually evaluated for injury. Plant response ratings, summarized in Table A, are based on a 0 to 100 scale where 0 is no effect and 100 is complete control. A dash (-) response means no test result.

[2] = test system: wheat (Triticum aestivum); test: as above; conditions: 0 to 100 scale (0 no effect, 100 complete control), approx. 10 d
Source text: as §1, §2

[3] = test system: velvetleaf (Abutilon theophrasti); test: as above; conditions: 0 to 100 scale (0 no effect, 100 complete control), approx. 10 d
Source text: as §1, §2

[4] = test system: barnyardgrass (Echinochloa crus-galli); test: as above; conditions: 0 to 100 scale (0 no effect, 100 complete control), approx. 10 d
Source text: as §1, §2

[5] = test system: pigweed (Amaranthus retroflexus); test: as above; conditions: 0 to 100 scale (0 no effect, 100 complete control), approx. 10 d
Source text: as §1, §2

corn (Zea mays) = test: as above; conditions: 0 to 100 scale (0 no effect, 100 complete control), approx. 10 d
Source text: as §1, §2

[6] = test system: morningglory (Ipomoea spp.); test: as above; conditions: 0 to 100 scale (0 no effect, 100 complete control), approx. 10 d
Source text: as §1, §2

[7] = test system: foxtail, giant (giant foxtail, Setaria faberii); test: as above; conditions: 0 to 100 scale (0 no effect, 100 complete control), approx. 10 d
Source text: as §1, §2

rice (Oryza sativa) = test: Test B flooded paddy test; conditions: Flood, scale of 0 to 100, 0 is no effect, 100 is complete control, 13 to 15 d
Description: (§3) Plant species in the flooded paddy test selected from rice (Oryza sativa), small-flower sedge, umbrella (small-flower umbrella sedge, Cyperus difformis), ducksalad (Heteranthera limosa), and barnyardgrass (Echinochloa crus-galli) were grown to the 2-leaf stage for testing. At time of treatment, test pots were flooded to 3 cm above the soil surface, treated by application of test compounds directly to the paddy water, and then maintained at that water depth for the duration of the test. Treated plants and controls were maintained in a greenhouse for 13 to 15 d, after which time all species were compared to controls and visually evaluated. Plant response ratings, summarized in Table B, are based on a scale of 0 to 100 where 0 is no effect and 100 is complete control. A dash (-) response means no test result.

[8] = test system: barnyardgrass (Echinochloa crus-galli); test: Test B flooded paddy test; conditions: Flood, scale of 0 to 100, 0 is no effect, 100 is complete control, 13 to 15 d
Description: as §3

[9] = test system: ducksalad (Heteranthera limosa); test: Test B flooded paddy test; conditions: Flood, scale of 0 to 100, 0 is no effect, 100 is complete control, 13 to 15 d
Description: as §3

[10] = test system: sedge, umbrella (small-flower umbrella sedge, Cyperus difformis); test: Test B flooded paddy test; conditions: Flood, scale of 0 to 100, 0 is no effect, 100 is complete control, 13 to 15 d
Description: as §3

Structure (SMILES) | Plant response rating, Crabgrass, Large ([1]; Postemergence, 125 g ai/ha) | Plant response rating, Crabgrass, Large ([1]; Postemergence, 500 g ai/ha) | Plant response rating, Crabgrass, Large ([1]; Preemergence, 125 g ai/ha) | Plant response rating, Crabgrass, Large ([1]; Preemergence, 500 g ai/ha) | Plant response rating, Wheat ([2]; Postemergence, 125 g ai/ha) | Plant response rating, Wheat ([2]; Postemergence, 500 g ai/ha) | Plant response rating, Wheat ([2]; Preemergence, 125 g ai/ha) | Plant response rating, Wheat ([2]; Preemergence, 500 g ai/ha) | Plant response rating, Velvetleaf ([3]; Postemergence, 125 g ai/ha) | Plant response rating, Velvetleaf ([3]; Postemergence, 500 g ai/ha) | Plant response rating, Velvetleaf ([3]; Preemergence, 125 g ai/ha) | Plant response rating, Velvetleaf ([3]; Preemergence, 500 g ai/ha) | Plant response rating, Barnyardgrass ([4]; Postemergence, 125 g ai/ha) | Plant response rating, Barnyardgrass ([4]; Postemergence, 500 g ai/ha) | Plant response rating, Barnyardgrass ([4]; Preemergence, 125 g ai/ha) | Plant response rating, Barnyardgrass ([4]; Preemergence, 500 g ai/ha) | Plant response rating, Pigweed ([5]; Postemergence, 125 g ai/ha) | Plant response rating, Pigweed ([5]; Postemergence, 500 g ai/ha) | Plant response rating, Pigweed ([5]; Preemergence, 125 g ai/ha) | Plant response rating, Pigweed ([5]; Preemergence, 500 g ai/ha) | also measured
Cc1cc(Oc2ccnc(C(F)(F)F)c2)nn(-c2ccc(F)cc2)c1=O [Compound 13] | 50 | 90 | 100 | 100 | 0 | 20 | 0 | 10 | 60 | 70 | 10 | 50 | 10 | 60 | 0 | 60 | 90 | 100 | 80 | 90 | Plant response rating, Corn (corn (Zea mays); Postemergence, 125 g ai/ha): 20; Plant response rating, Corn (corn (Zea mays); Postemergence, 500 g ai/ha): 50; Plant response rating, Corn (corn (Zea mays); Preemergence, 125 g ai/ha): 0; Plant response rating, Corn (corn (Zea mays); Preemergence, 500 g ai/ha): 10; Plant response rating, Morningglory ([6]; Postemergence, 125 g ai/ha): 50; Plant response rating, Morningglory ([6]; Postemergence, 500 g ai/ha): 60; Plant response rating, Morningglory ([6]; Preemergence, 125 g ai/ha): 20; Plant response rating, Morningglory ([6]; Preemergence, 500 g ai/ha): 80; Plant response rating, Foxtail, Giant ([7]; Postemergence, 125 g ai/ha): 50; Plant response rating, Foxtail, Giant ([7]; Postemergence, 500 g ai/ha): 90; Plant response rating, Foxtail, Giant ([7]; Preemergence, 125 g ai/ha): 80; Plant response rating, Foxtail, Giant ([7]; Preemergence, 500 g ai/ha): 100; Plant response rating, Rice (rice (Oryza sativa); 250 g ai/ha): 0; Plant response rating, Barnyardgrass ([8]; 250 g ai/ha): 0; Plant response rating, Ducksalad ([9]; 250 g ai/ha): 30; Plant response rating, Sedge, Umbrella ([10]; 250 g ai/ha): 65
Cc1cc(=O)n(-c2ccccc2)nc1Oc1ccnc(C(F)(F)F)c1 [Compound 15] | 80 | 90 | 100 | 100 | 20 | 60 | 0 | 20 | 70 | 90 | 30 | 70 | 70 | 90 | 50 | 100 | 100 | 100 | 100 | 100 | Plant response rating, Corn (corn (Zea mays); Postemergence, 125 g ai/ha): 40; Plant response rating, Corn (corn (Zea mays); Postemergence, 500 g ai/ha): 80; Plant response rating, Corn (corn (Zea mays); Preemergence, 125 g ai/ha): 10; Plant response rating, Corn (corn (Zea mays); Preemergence, 500 g ai/ha): 20; Plant response rating, Morningglory ([6]; Postemergence, 125 g ai/ha): 100; Plant response rating, Morningglory ([6]; Postemergence, 500 g ai/ha): 100; Plant response rating, Morningglory ([6]; Preemergence, 125 g ai/ha): 90; Plant response rating, Morningglory ([6]; Preemergence, 500 g ai/ha): 100; Plant response rating, Foxtail, Giant ([7]; Postemergence, 125 g ai/ha): 70; Plant response rating, Foxtail, Giant ([7]; Postemergence, 500 g ai/ha): 90; Plant response rating, Foxtail, Giant ([7]; Preemergence, 125 g ai/ha): 100; Plant response rating, Foxtail, Giant ([7]; Preemergence, 500 g ai/ha): 100; Plant response rating, Rice (rice (Oryza sativa); 250 g ai/ha): 0; Plant response rating, Barnyardgrass ([8]; 250 g ai/ha): 0; Plant response rating, Ducksalad ([9]; 250 g ai/ha): 70; Plant response rating, Sedge, Umbrella ([10]; 250 g ai/ha): 70
CCOc1cc(=O)n(-c2ccc(C(F)(F)F)cc2)nc1Cc1ccnc(C(F)(F)F)c1 [Compound 18] | 60 | 80 | 100 | 100 | 10 | 20 | 0 | 20 | 30 | 80 | 40 | 40 | 30 | 40 | 60 | 90 | 90 | 100 | 100 | 100 | Plant response rating, Corn (corn (Zea mays); Postemergence, 125 g ai/ha): 20; Plant response rating, Corn (corn (Zea mays); Postemergence, 500 g ai/ha): 40; Plant response rating, Corn (corn (Zea mays); Preemergence, 125 g ai/ha): 10; Plant response rating, Corn (corn (Zea mays); Preemergence, 500 g ai/ha): 10; Plant response rating, Morningglory ([6]; Postemergence, 125 g ai/ha): 30; Plant response rating, Morningglory ([6]; Postemergence, 500 g ai/ha): 70; Plant response rating, Morningglory ([6]; Preemergence, 125 g ai/ha): 30; Plant response rating, Morningglory ([6]; Preemergence, 500 g ai/ha): 30; Plant response rating, Foxtail, Giant ([7]; Postemergence, 125 g ai/ha): 20; Plant response rating, Foxtail, Giant ([7]; Postemergence, 500 g ai/ha): 50; Plant response rating, Foxtail, Giant ([7]; Preemergence, 125 g ai/ha): 100; Plant response rating, Foxtail, Giant ([7]; Preemergence, 500 g ai/ha): 100; Plant response rating, Rice (rice (Oryza sativa); 125 g ai/ha): 0; Plant response rating, Barnyardgrass ([8]; 125 g ai/ha): 0; Plant response rating, Ducksalad ([9]; 125 g ai/ha): 0; Plant response rating, Sedge, Umbrella ([10]; 125 g ai/ha): 75
